{
  "source": "patent US6677357B2",
  "about": "“Rapamycin 29-enols” (Wyeth, priority 2001, dated 2004)",
  "format_in_all_cases": "cell-based",
  "key": {"3T3 (ovarian)": {"system": "3T3 (ovarian)", "assay": "Antineoplastic activity, tumor cell growth inhibition (sulforhodamine B), 3T3", "conditions": "48 hours; for Antineoplastic Activity (IC50): 3T3 cells; for IC50: Mus musculus, NIH3T3, 3T3 cells", "text": "(§1) Antineoplastic activity for the compounds of this invention was confirmed by evaluating the antineoplastic activity of representative compounds of this invention (Examples 1-5) against six tumor cell lines in vitro. Briefly, tumor cells from six cell lines were placed in wells of a 96 well microtiter plate. The following tumor cell lines were used: 3T3 (ovarian), 3T3/H2N (ovarian—resistant to cis-platin), A431 (vulva epidermoid origin), SW620 (colon), SKBR3 (breast), and MDA-435 (breast). The tumors cells were grown in the presence of serial dilutions of the compound to be evaluated for 48 hours, and cell growth determined using a calorimetric procedure (sulforhrodamine B). The inhibition of growth was calculated compared to the number of cells at the time of test compound addition."}, "[1]": {"system": "3T3/H2N (ovarian—resistant to cis-platin)", "assay": "Antineoplastic activity, tumor cell growth inhibition (sulforhodamine B), 3T3/H2N", "conditions": "3T3/H2N cells, 48 hours", "text": "as §1"}, "[2]": {"system": "A431 (vulva epidermoid origin)", "assay": "Antineoplastic activity, tumor cell growth inhibition (sulforhodamine B), A431", "conditions": "48 hours; for Antineoplastic Activity (IC50): A431 cells; for IC50: Homo sapiens, A-431, A431 cells", "text": "as §1"}, "SKBR3 (breast)": {"system": "SKBR3 (breast)", "assay": "Antineoplastic activity, tumor cell growth inhibition (sulforhodamine B), SKBR3", "conditions": "48 hours; for Antineoplastic Activity (IC50): SKBR3 cells; for IC50: Homo sapiens, SK-BR-3, SKBR3 cells", "text": "as §1"}, "MDA-435 (breast)": {"system": "MDA-435 (breast)", "assay": "Antineoplastic activity, tumor cell growth inhibition (sulforhodamine B), MDA-435", "conditions": "MDA435 cells, 48 hours", "text": "as §1"}, "SW620 (colon)": {"system": "SW620 (colon)", "assay": "Antineoplastic activity, tumor cell growth inhibition (sulforhodamine B), SW620", "conditions": "48 hours; for Antineoplastic Activity (IC50): SW620 cells; for IC50: Homo sapiens, SW-620, SW620 cells", "text": "as §1"}, "SH-SY5Y cells": {"system": "SH-SY5Y cells", "assay": "Neurite outgrowth (neuroregeneration) test procedure in SH-SY5Y cells", "conditions": "SH-SY5Y cells pretreated with aphidicolin 5 days, mean ± SEM", "text": "The neuroregeneration activity for the compounds of this invention was confirmed in a standard pharmacological test procedure by evaluating rapamycin dialdehyde (Example 1) and rapamycin 29-enol (Example 2), as representative compounds of this invention, against SH-SY5Y cells in vitro [Gold et al., Exp Neurol 147:269-278, 1997]. Briefly, SH-SY5Y cells were placed in 6-well plate treated with aphidicolin for 5 days followed by the test compounds using 6-well plates. For controls, wells were untreated, or treated with nerve growth factor (NGF) alone. Test wells were treated with NGF plus Example 1 and Example 2, or rapamycin. Cells were photographed at 168 hours. Analysis of neuritic lengths was performed on photographic prints using a Houston Instrument HI-PAD digitizing tablet connected to an IBM XT computer with appropriate software (Bioquant IV, R&M Biometrics, Nashville, Tenn.). Mean values for axonal areas were compared using by ANOVA (STATVIEW, Abacus Concepts, Inc., Berkeley, Calif.). The following table summarizes the results that were obtained."}},
  "data": [
    {"compound": "42-O-(2-Hydroxy)ethyl rapamycin 29-enol [V]", "values": [
      {"measurement": "Antineoplastic Activity (IC50)", "setting": "3T3 (ovarian)", "result": ">5", "unit": "µg/mL"},
      {"measurement": "Antineoplastic Activity (IC50)", "setting": "[1]", "result": 4.96, "unit": "µg/mL"},
      {"measurement": "Antineoplastic Activity (IC50)", "setting": "[2]", "result": ">5", "unit": "µg/mL"},
      {"measurement": "Antineoplastic Activity (IC50)", "setting": "SKBR3 (breast)", "result": 2.69, "unit": "µg/mL"},
      {"measurement": "Antineoplastic Activity (IC50)", "setting": "MDA-435 (breast)", "result": ">5", "unit": "µg/mL"},
      {"measurement": "Antineoplastic Activity (IC50)", "setting": "SW620 (colon)", "result": ">5", "unit": "µg/mL"}
    ]},
    {"compound": "42-O-(2-Hydroxy)ethyl rapamycin dialdehyde [IV]", "values": [
      {"measurement": "Antineoplastic Activity (IC50)", "setting": "3T3 (ovarian)", "result": 1.5, "unit": "µg/mL"},
      {"measurement": "Antineoplastic Activity (IC50)", "setting": "[1]", "result": 0.72, "unit": "µg/mL"},
      {"measurement": "Antineoplastic Activity (IC50)", "setting": "[2]", "result": 2.64, "unit": "µg/mL"},
      {"measurement": "Antineoplastic Activity (IC50)", "setting": "SKBR3 (breast)", "result": 0.36, "unit": "µg/mL"},
      {"measurement": "Antineoplastic Activity (IC50)", "setting": "MDA-435 (breast)", "result": 1.1, "unit": "µg/mL"},
      {"measurement": "Antineoplastic Activity (IC50)", "setting": "SW620 (colon)", "result": 3.04, "unit": "µg/mL"}
    ]},
    {"compound": "CO[C@@H](C[C@@H]1CC[C@@H](C)[C@](O)(C(=O)C(=O)N2CCCC[C@H]2C(=O)O[C@@H](CC(=O)[C@H](C)/C=C(\\C)[C@@H](O)[C@@H](OC)C(=O)[C@H](C)C[C@H](C)/C=C/C=O)[C@H](C)CC2CC[C@@H](O)[C@H](OC)C2)O1)/C(C)=C/C=O", "note": "(stereo partly shown) [Example I, Rapamycin Dialdehyde]", "values": [
      {"measurement": "Mean Neurite Length after 168 h", "setting": "SH-SY5Y cells; test compound + NGF", "result": "229.8 ± 9.5 (n = 141) μm"},
      {"measurement": "IC50", "setting": "3T3 (ovarian)", "result": 0.72, "unit": "µg/mL"},
      {"measurement": "IC50", "setting": "[1]", "result": 0.68, "unit": "µg/mL"},
      {"measurement": "IC50", "setting": "[2]", "result": 0.91, "unit": "µg/mL"},
      {"measurement": "IC50", "setting": "SKBR3 (breast)", "result": 0.52, "unit": "µg/mL"},
      {"measurement": "IC50", "setting": "MDA-435 (breast)", "result": 1.23, "unit": "µg/mL"},
      {"measurement": "IC50", "setting": "SW620 (colon)", "result": 1.41, "unit": "µg/mL"}
    ]},
    {"compound": "CO[C@@H]1[C@H](O)C2(C)OOC1([C@H](C)C[C@H](C)/C=C/C=O)O2", "note": "(stereo partly drawn) [III, (2E,4S,6R)-6-[(5S,6R)-5-Hydroxy-6-methoxy-4-methyl-2,3,7-trioxabicyclo[2.2.1]hept-1-yl]-4-methylhept-2-enal]", "values": [
      {"measurement": "IC50", "setting": "3T3 (ovarian)", "result": 4.11, "unit": "µg/mL"},
      {"measurement": "IC50", "setting": "[1]", "result": "> 5", "unit": "µg/mL"},
      {"measurement": "IC50", "setting": "[2]", "result": 3.01, "unit": "µg/mL"},
      {"measurement": "IC50", "setting": "SKBR3 (breast)", "result": 2.05, "unit": "µg/mL"},
      {"measurement": "IC50", "setting": "MDA-435 (breast)", "result": 4.13, "unit": "µg/mL"},
      {"measurement": "IC50", "setting": "SW620 (colon)", "result": "> 5", "unit": "µg/mL"}
    ]},
    {"compound": "CO[C@H]1C[C@@H]2CC[C@@H](C)[C@@](O)(O2)C(=O)C(=O)N2CCCC[C@H]2C(=O)O[C@H]([C@H](C)C[C@@H]2CC[C@@H](O)[C@H](OC)C2)CC(=O)[C@H](C)/C=C(\\C)[C@@H](O)[C@@H](OC)C(=O)[C@H](C)C[C@H](C)/C=C/C=C/C=C/1C", "note": "[Rapamycin]", "values": [
      {"measurement": "Mean Neurite Length after 168 h", "setting": "SH-SY5Y cells; test compound + NGF", "result": "261.4 ± 13.1 (n = 119) μm"}
    ]},
    {"compound": "NGF: nerve growth factor (NGF), used alone as control and together with test compounds", "values": [
      {"measurement": "Mean Neurite Length after 168 h", "setting": "SH-SY5Y cells; NGF alone", "result": "196.5 ± 7.7 (n = 112) μm"}
    ]},
    {"compound": "Rapamycin 29-enol [Example II]", "values": [
      {"measurement": "Mean Neurite Length after 168 h", "setting": "SH-SY5Y cells; test compound + NGF", "result": "239.7 ± 10.0 (n = 155) μm"},
      {"measurement": "Antineoplastic Activity (IC50)", "setting": "3T3 (ovarian)", "result": ">5", "unit": "µg/mL"},
      {"measurement": "Antineoplastic Activity (IC50)", "setting": "[1]", "result": ">5", "unit": "µg/mL"},
      {"measurement": "Antineoplastic Activity (IC50)", "setting": "[2]", "result": ">5", "unit": "µg/mL"},
      {"measurement": "Antineoplastic Activity (IC50)", "setting": "SKBR3 (breast)", "result": ">5", "unit": "µg/mL"},
      {"measurement": "Antineoplastic Activity (IC50)", "setting": "MDA-435 (breast)", "result": ">5", "unit": "µg/mL"},
      {"measurement": "Antineoplastic Activity (IC50)", "setting": "SW620 (colon)", "result": ">5", "unit": "µg/mL"}
    ]}
  ]
}
